In BindingDB's records for doi:10.1021/acs.jmedchem.8b00875 (2019):

Columns and labels:
[1] = target: T1, Muscarinic acetylcholine receptor M1 (Homo sapiens, UniProt P11229); assay: Positive allosteric modulation of M1 AchR (unknown origin)
T1 sequence (P11229 whole entry): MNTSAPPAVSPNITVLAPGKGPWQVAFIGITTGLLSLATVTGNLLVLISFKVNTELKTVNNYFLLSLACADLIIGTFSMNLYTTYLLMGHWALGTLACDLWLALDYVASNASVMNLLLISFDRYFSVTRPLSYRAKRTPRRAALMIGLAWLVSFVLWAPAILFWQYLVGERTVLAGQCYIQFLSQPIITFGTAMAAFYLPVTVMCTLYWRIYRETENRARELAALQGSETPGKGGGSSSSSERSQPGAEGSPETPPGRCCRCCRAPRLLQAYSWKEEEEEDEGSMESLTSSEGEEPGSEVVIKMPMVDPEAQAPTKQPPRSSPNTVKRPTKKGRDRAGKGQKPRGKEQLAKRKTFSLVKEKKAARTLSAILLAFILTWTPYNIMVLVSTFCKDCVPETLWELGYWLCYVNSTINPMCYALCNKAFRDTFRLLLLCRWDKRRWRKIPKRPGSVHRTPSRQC

[2] = target: T2, 5-hydroxytryptamine receptor 2C (Homo sapiens, UniProt P28335); assay: Positive allosteric modulation of 5-HT2C receptor (unknown origin) assessed as increase in 5-HT-induced displacement of [3H]mesulergine by measuring 5-HT Ki at 20 uM (Rvb = 159 nM)
T2 sequence (P28335 whole entry): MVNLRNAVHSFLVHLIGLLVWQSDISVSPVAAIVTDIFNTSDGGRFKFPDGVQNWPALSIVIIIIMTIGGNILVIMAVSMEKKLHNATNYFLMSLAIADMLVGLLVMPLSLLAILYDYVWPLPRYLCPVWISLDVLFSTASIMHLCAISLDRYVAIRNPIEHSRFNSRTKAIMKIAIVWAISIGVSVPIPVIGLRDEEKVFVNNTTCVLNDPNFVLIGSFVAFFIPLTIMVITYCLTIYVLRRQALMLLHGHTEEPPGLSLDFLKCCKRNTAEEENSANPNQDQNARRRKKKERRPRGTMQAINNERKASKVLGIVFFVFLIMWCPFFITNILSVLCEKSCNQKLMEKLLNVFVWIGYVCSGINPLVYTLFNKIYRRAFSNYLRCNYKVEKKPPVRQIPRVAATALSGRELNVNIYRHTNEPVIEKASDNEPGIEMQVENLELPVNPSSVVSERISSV

## Cn1cc(-c2ccc(Cn3cc(C(=O)N[C@H]4CCCC[C@@H]4O)c4c(F)cc(F)cc43)cn2)cn1
[1]
  EC50: 210 nM

## CCCCCCCCCCC[C@@H]1CCN[C@H](C(=O)N[C@@H]([C@H]2O[C@H](SC)[C@H](O)[C@@H](O)[C@H]2O)[C@H](C)Cl)C1
[2]
  Ki: 6.4 nM
